In the supplement of paper PMC10132981, “Formate overflow drives toxic folate trapping in MTHFD1 inhibited cancer cells” (Nature Metabolism, 2023):

System: HCT116
Assay: cell viability relative to lowest-dose well (resazurin, 96 h); higher = more viable
Conditions: RPMI + 10% FBS
Procedure, shortened: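 In 384-well plates, 50 µl RPMI with 10% FBS plus a metabolite supplement received 500 HCT116 or 1,000 SW620 cells per well. Dilution series of compounds, taken from 10 mM DMSO stocks, were added and the plates kept 96 h at 37 °C, 5% CO2. Viability, reported as percent of the lowest-dose well across independent replicate cultures, was measured as resazurin-to-resorufin conversion by fluorescence at 595 nm.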

O=c1[nH]cc(F)c(=O)[nH]1 [5-fluorouracil]
cell viability [%]
Conditions	0.0001 M	0.01 µM	0.0278 µM	0.0774 µM	0.215 µM	0.599 µM	1.67 µM	4.64 µM	12.9 µM	35.9 µM
metabolite supplement: 50uM thymidine	4.77	98.1	96.2	96.3	97.9	91.9	63.7	24.6	11.8	6.83
metabolite supplement: 50uM thymidine + 250uM hypoxanthine	5.93	106	104	105	106	103	84	39.7	15.7	8.5
metabolite supplement: 250uM hypoxanthine	4.9	100	96.9	97.3	96.8	90.6	78.4	33.2	13	7.4
metabolite supplement: vehicle	4.53	102	102	101	99.6	94.6	65	22.9	11.1	6.67
